Earlier results on two compounds are cited in patent publication US7892838B2, “Method for the in vivo modification of the synthesis activity of a metabolite by means of the modification of a gene the activity of which is not the original activity” (Institut Pasteur, priority 2003, dated 2011).

The test system of the data set is HIV (human immunodeficiency virus).

`Nc1ncnc2c1ncn2[C@H]1CC[C@@H](CO)O1` [ddA, 2′,3′-dideoxyadenosine]: the “inhibition of the replication of HIV” value is recorded as “effectively inhibit the replication of HIV”.

Take `OC[C@@H]1CC[C@H](n2cnc3c(O)ncnc32)O1` [ddI, 2′,3′-dideoxyinosine]: the “inhibition of the replication of HIV” value was “effectively inhibit the replication of HIV”.
